Source: US10722512B2, “Combinations of histone deacetylase inhibitors and either HER2 inhibitors or PI3K inhibitors” (Acetylon Pharmaceuticals, Inc., priority 2013, dated 2020)

What was measured:
[1] = tested on: BT-549; assay: Breast cancer cell viability, 48 hours, MTA assay; format: cell-based; settings: Homo sapiens, BT-549, 48 h
Description: (§1) Cell viabilities were used to calculate “Fraction Affected” (Fa) and “Combination Index” (CI) values using the Chou-Talalay method. Any combination with a CI value<0.70 at a Fa value between 0.25 and 0.75 was defined as positive synergy.

[2] = tested on: BT474; assay: Breast cancer cell viability, 48 hours, MTA assay; format: cell-based; settings: Homo sapiens, BT-474, 48 h
Description: as §1

[3] = tested on: Bcap-37; assay: Breast cancer cell viability, 48 hours, MTA assay; format: cell-based; settings: Homo sapiens, Bcap37, 48 h
Description: as §1

[4] = tested on: HCC1937; assay: Breast cancer cell viability, 48 hours, MTA assay; format: cell-based; settings: Homo sapiens, HCC1937, 48 h
Description: as §1

[5] = tested on: HCC38; assay: Breast cancer cell viability, 48 hours, MTA assay; format: cell-based; settings: Homo sapiens, HCC38, 48 h
Description: as §1

[6] = tested on: Hs578T; assay: Breast cancer cell viability, 48 hours, MTA assay; format: cell-based; settings: Homo sapiens, Hs-578T, 48 h
Description: as §1

[7] = tested on: MCF-7; assay: Breast cancer cell viability, 48 hours, MTA assay; format: cell-based; settings: Homo sapiens, MCF7, 48 h
Description: as §1

[8] = tested on: MDA-MB-231; assay: Breast cancer cell viability, 48 hours, MTA assay; format: cell-based; settings: Homo sapiens, MDA-MB-231, 48 h
Description: as §1

[9] = tested on: MDA-MB-361; assay: Breast cancer cell viability, 48 hours, MTA assay; format: cell-based; settings: Homo sapiens, MDA-MB-361, 48 h
Description: as §1

[10] = tested on: MDA-MB-436; assay: Breast cancer cell viability, 48 hours, MTA assay; format: cell-based; settings: Homo sapiens, MDA-MB-436, 48 h
Description: as §1

[11] = tested on: MDA-MB-453; assay: Breast cancer cell viability, 48 hours, MTA assay; format: cell-based; settings: Homo sapiens, MDA-MB-453, 48 h
Description: as §1

[12] = tested on: MDA-MB-468; assay: Breast cancer cell viability, 48 hours, MTA assay; format: cell-based; settings: Homo sapiens, MDA-MB-468, 48 h
Description: as §1

[13] = tested on: MX-1; assay: Breast cancer cell viability, 48 hours, MTA assay; format: cell-based; settings: Homo sapiens, MX1, 48 h
Description: as §1

[14] = tested on: SK-BR-3; assay: Breast cancer cell viability, 48 hours, MTA assay; format: cell-based; settings: Homo sapiens, SK-BR-3, 48 h
Description: as §1

[15] = tested on: T-47D*; assay: Breast cancer cell viability, 48 hours, MTA assay; format: cell-based; settings: Homo sapiens, T47D, 48 h
Description: as §1

[16] = tested on: ZR-75-1; assay: Breast cancer cell viability, 48 hours, MTA assay; format: cell-based; settings: Homo sapiens, ZR-75-1, 48 h
Description: as §1

[17] = Potentiation of PI3K inhibitor GDC-0941 by HDAC6 selective inhibitors (Example 7); format: cell-based; settings: non-cytotoxic concentrations of the HDAC6 inhibitor
[18] = tested on: BT-474; assay: Potentiation effect of HDAC6 inhibitors on Her2+ breast cancer cell lines; format: cell-based; settings: for cytotoxicity of HDAC6 inhibitor alone: BT-474, at the tested concentrations
Protocol: (§2) The IC50 (Inhibitory Concentration at which 50% of the cells are viable) values of these 4 anti-breast cancer compounds were calculated in the presence of increasing concentrations of a HDAC6 inhibitor.

[19] = tested on: MDA-MB-453; assay: as above; format: cell-based; settings: for cytotoxicity of HDAC6 inhibitor alone: MDA-MB-453, at the tested concentrations
Protocol: as §2

[20] = tested on: panel of nearly 100 human tumor cell lines; assay: Anti-tumor activity in a panel of nearly 100 human tumor cell lines; format: cell-based; settings: Her2+ breast cancer cells versus other major cancer types
[21] = tested on: Her2 protein, p-EGFR, p-AKT in MDA-MB-453; assay: Her2 protein, p-EGFR and p-AKT levels after treatment; format: cell-based; settings: Her2+ breast cancer cell line MDA-MB-453
[22] = molecular target: T1, HDAC6 (Homo sapiens, UniProt Q9UBN7); assay: HDAC enzyme assays; format: biochemical
T1 construct: purchased BPS Biosciences
T1 sequence (Q9UBN7 whole entry): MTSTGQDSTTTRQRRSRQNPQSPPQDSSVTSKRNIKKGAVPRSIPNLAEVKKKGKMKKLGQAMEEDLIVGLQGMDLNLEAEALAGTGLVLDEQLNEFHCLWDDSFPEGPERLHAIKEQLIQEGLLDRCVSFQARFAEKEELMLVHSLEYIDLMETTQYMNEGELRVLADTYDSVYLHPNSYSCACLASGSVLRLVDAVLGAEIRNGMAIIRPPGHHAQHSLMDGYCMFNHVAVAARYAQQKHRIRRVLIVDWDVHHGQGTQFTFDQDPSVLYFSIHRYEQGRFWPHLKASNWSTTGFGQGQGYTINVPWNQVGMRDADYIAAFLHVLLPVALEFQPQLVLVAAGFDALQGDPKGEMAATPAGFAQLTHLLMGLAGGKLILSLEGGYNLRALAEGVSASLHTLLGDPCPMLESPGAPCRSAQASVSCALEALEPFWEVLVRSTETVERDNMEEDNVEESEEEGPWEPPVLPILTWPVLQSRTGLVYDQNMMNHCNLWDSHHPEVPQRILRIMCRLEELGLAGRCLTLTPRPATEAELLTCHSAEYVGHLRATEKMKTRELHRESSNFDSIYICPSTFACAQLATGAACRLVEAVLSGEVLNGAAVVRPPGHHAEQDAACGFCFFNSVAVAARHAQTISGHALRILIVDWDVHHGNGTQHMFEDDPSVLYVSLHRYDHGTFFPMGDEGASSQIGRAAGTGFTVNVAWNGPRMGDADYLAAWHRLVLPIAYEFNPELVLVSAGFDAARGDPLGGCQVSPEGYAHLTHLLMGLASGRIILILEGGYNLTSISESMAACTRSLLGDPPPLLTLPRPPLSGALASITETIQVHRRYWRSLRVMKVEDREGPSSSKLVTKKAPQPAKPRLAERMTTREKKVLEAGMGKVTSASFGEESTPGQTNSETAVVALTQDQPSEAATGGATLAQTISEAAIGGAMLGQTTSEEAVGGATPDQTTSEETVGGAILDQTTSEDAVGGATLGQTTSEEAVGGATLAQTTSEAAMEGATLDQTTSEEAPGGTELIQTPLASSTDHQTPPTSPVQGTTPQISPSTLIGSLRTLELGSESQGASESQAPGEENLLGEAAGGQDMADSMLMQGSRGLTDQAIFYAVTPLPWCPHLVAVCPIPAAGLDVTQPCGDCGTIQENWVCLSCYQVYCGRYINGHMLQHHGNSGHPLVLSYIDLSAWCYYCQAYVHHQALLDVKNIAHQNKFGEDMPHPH
Protocol: Compounds for testing were diluted in DMSO to 50 fold the final concentration and a ten point three fold dilution series was made. […] The final enzyme concentrations used in these assays were 3.3 ng/ml (HDAC1), 0.2 ng/ml (HDAC2), 0.08 ng/ml (HDAC3) and 2 ng/ml (HDAC6). […] The IC50 was determined using Graph Pad Prism by a four parameter curve fit.

[23] = tested on: A549 and MDA-MB-231 cancer cells; assay: Migration assay; format: cell-based; settings: in the presence or absence of epidermal growth factor (EGF)
Protocol: Many cultured cancer cells are able to migrate across a membrane and this activity indicates the metastatic potential of the cancer cells. The migration of two cancer cells, A549 and MDA-MB-231, were compared in the presence or absence of a HDAC6 inhibitor. The cancer cells were seeded and grown on a membrane surface, and the cell numbers on the other side of the membrane were counted under a microscope after 12 hours. […] In the study, an HDAC inhibitor was added to the cells either 2 hours before or when the migration was measured. The effect of HDAC6 inhibitor on Epidermal Growth Factor (EGF) stimulated cancer cell migration using 20 ng/ml of EGF in the assay was investigated.
The protocol for the Migration Assay was as follows. The compounds were prepared in DMSO at 400× stock of the final required concentrations.
200 μl of warm basal RPMI1640 medium was added to the interior of the inserts, allowed to rehydrate for 2 hours in a humidified tissue culture incubator at 37° C., 5% CO2 atmosphere. […] The number of migrated cells were counted under a microscope in five fields at 100× magnification. The viable cells were seeded in the 96 well plate with the same treatment as in the migration assay were measured using CTG (Cell Titer Glow).

SMILES: O=C(CCCCCCNC(=O)c1cnc(N(c2ccccc2)c2ccccc2)nc1)NO [Compound A, 2-(diphenylamino)-N-(7-(hydroxyamino)-7-oxoheptyl) pyrimidine-5-carboxamide]
- IC50 [1]: 8.97 µM
- IC50 [2]: 2.32 µM
- IC50 [3]: 7.66 µM
- IC50 [4]: 11.2 µM
- IC50 [5]: 7.76 µM
- IC50 [6]: 5.57 µM
- IC50 [7]: 8.95 µM
- IC50 [8]: 7.49 µM
- IC50 [9]: 4.51 µM
- IC50 [10]: 25.7 µM
- IC50 [11]: 1.25 µM
- IC50 [12]: 14.9 µM
- IC50 [13]: 6.38 µM
- IC50 [14]: 1.94 µM
- IC50 [15]: 5 µM
- IC50 [16]: 3.57 µM
- potentiation of GDC-0941 (decrease in the IC50 value) [17]: GDC-0941 becomes more potent
- cytotoxicity of HDAC6 inhibitor alone [18]: not cytotoxic
- cytotoxicity of HDAC6 inhibitor alone [19]: not cytotoxic
- sensitivity of Her2+ breast cancer cells within the panel [20]: among the most sensitive cells
- Her2 protein, p-EGFR and p-AKT levels [21]: decrease of Her2 protein, p-EGFR, and p-AKT

SMILES: O=C(NO)c1cnc(NC2(c3cccc(F)c3)CCCCC2)nc1 [Compound C, 2-((1-(3-fluorophenyl)cyclohexyl)amino)-N-hydroxypyrimidine-5-carboxamide]
- potency as HDAC6 selective inhibitor [22]: low nM potency
- potentiation of GDC-0941 (decrease in the IC50 value) [17]: GDC-0941 becomes more potent
- cytotoxicity of HDAC6 inhibitor alone [18]: not cytotoxic
- sensitization to lapatinib and PI3K inhibitors ([18]; BT-474, lapatinib, IPI-145, GDC-0941 and CAL-101): able to sensitize
- cytotoxicity of HDAC6 inhibitor alone [19]: not cytotoxic
- sensitization to lapatinib and PI3K inhibitors ([19]; MDA-MB-453, lapatinib, IPI-145, GDC-0941 and CAL-101): able to sensitize
- cancer cell migration [23]: blocked cancer cell migration
